Assay results taken from patent publication US20130072466A1, “COMPOSITION CONTAINING PLACENTA EXTRACTS” (Industry-Academic Cooperation Foundation, Yeungnam …, priority 2010, published 2013).

Key:
reproductive cycle = assay: Reproductive cycle change assay by vaginal smearing; format: in vivo, CD-1 mice; conditions: subcutaneous injection for 14 days, FIG. 9
Procedure: (§1) The placenta 1 extract prepared according to the example was dissolved with 100% ethanol as a primary solvent, and sesame oil for body injection was added thereto to obtain a 1 g/ml concentration, and the resultant product was diluted into 0.1% concentration. Herein, 100% was defined as a case in which the extract was diluted with sesame oil by a factor of 100. The diluted extract was subcutaneously injected for 14 days to 6-8 week-old CD-1 mice which had been raised under physiological conditions (6 mice per each group).
To identify effects of the placenta extract on a reproductive cycle, a reproductive cycle was assayed by vaginal smearing during the administration of the placenta extract.

red blood cells = assay: Numerical change assay of red blood cells in peripheral blood; format: in vivo, CD-1 mice; conditions: 0.1% placenta extract, subcutaneous, 14 days; compared to the control; FIG. 11
Procedure: as §1
The cells were treated with 0.1% placenta extract under the same conditions as described above, and then, peripheral blood was collected, and then, 1 mg/ml of EDTA was added thereto to prevent blood coagulation. Then, the number of red blood cells was counted by using an analyzer.

[1] = system: CD34 hematopoietic stem cells; assay: CD34-marked numerical change assay of hematopoietic stem cells using FACS; format: in vivo, CD-1 mouse; conditions: 0.1% placenta extract, subcutaneous, 14 days, FIG. 10
Procedure: as §1
Whether the placenta extract promotes proliferation of hematopoietic stem cells was identified with CD34 that is a marking factor. CD-1 mouse treated with 0.1% placenta extract was sacrificed to collect a thighbone, and then, a bone marrow was extracted therefrom by using PBS solution. Thereafter, the bone marrow was reacted with CD34 specific antibody, and then, CD34 hematopoietic stem cells were counted by using a fluorescent activated cell sorter.

Compound: C[C@]12CC[C@H]3[C@@H](CCC4=CC(=O)CC[C@@H]43)[C@@H]1CC[C@@H]2O [nandrolone]
- reproductive cycle periodicity (reproductive cycle): a reproductive cycle gradually became non-periodic
- number of red blood cells in peripheral blood (red blood cells): the number of red blood cells significantly increased
- number of CD34 hematopoietic stem cells in bone marrow [1]: the number of hematopoietic stem cells significantly increased
